Test results reported in patent US20230135152A1 (ACURASTEM INCORPORATED, priority 2020, published 2023).

Assays:
PIKFYVE [1] = biological target: T1, PIKFYVE (Homo sapiens, UniProt Q9Y2I7); assay: PIKFYVE assay (luciferase ADP-Glo kinase assay, Promega); assay type: biochemical; details: Table 3
In short: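 ADP generated in the kinase reaction was detected by ADP-Glo luminescence (luciferase).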

PIKFYVE [2] = biological target: T1, PIKFYVE; assay: Cell-based Pikfyve inhibition activity assay (EEA1 staining, mean vesicle size in BJ fibroblast cells); details: Table 4, 4 hours treatment, 3 μM Apilimod = 100% inhibition
In short: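 BJ fibroblasts treated 4 h at 37° C with eleven 3-fold doses (0.03-3000 nM), then fixed and stained for EEA1. Confocal images (20×, 16 tiles/well) analysed for mean vesicle size. Normalised to 0.5% DMSO (0%) and 3 μM apilimod (100%); dose-response fitted with variable slope.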

T1 sequence (Q9Y2I7 whole entry): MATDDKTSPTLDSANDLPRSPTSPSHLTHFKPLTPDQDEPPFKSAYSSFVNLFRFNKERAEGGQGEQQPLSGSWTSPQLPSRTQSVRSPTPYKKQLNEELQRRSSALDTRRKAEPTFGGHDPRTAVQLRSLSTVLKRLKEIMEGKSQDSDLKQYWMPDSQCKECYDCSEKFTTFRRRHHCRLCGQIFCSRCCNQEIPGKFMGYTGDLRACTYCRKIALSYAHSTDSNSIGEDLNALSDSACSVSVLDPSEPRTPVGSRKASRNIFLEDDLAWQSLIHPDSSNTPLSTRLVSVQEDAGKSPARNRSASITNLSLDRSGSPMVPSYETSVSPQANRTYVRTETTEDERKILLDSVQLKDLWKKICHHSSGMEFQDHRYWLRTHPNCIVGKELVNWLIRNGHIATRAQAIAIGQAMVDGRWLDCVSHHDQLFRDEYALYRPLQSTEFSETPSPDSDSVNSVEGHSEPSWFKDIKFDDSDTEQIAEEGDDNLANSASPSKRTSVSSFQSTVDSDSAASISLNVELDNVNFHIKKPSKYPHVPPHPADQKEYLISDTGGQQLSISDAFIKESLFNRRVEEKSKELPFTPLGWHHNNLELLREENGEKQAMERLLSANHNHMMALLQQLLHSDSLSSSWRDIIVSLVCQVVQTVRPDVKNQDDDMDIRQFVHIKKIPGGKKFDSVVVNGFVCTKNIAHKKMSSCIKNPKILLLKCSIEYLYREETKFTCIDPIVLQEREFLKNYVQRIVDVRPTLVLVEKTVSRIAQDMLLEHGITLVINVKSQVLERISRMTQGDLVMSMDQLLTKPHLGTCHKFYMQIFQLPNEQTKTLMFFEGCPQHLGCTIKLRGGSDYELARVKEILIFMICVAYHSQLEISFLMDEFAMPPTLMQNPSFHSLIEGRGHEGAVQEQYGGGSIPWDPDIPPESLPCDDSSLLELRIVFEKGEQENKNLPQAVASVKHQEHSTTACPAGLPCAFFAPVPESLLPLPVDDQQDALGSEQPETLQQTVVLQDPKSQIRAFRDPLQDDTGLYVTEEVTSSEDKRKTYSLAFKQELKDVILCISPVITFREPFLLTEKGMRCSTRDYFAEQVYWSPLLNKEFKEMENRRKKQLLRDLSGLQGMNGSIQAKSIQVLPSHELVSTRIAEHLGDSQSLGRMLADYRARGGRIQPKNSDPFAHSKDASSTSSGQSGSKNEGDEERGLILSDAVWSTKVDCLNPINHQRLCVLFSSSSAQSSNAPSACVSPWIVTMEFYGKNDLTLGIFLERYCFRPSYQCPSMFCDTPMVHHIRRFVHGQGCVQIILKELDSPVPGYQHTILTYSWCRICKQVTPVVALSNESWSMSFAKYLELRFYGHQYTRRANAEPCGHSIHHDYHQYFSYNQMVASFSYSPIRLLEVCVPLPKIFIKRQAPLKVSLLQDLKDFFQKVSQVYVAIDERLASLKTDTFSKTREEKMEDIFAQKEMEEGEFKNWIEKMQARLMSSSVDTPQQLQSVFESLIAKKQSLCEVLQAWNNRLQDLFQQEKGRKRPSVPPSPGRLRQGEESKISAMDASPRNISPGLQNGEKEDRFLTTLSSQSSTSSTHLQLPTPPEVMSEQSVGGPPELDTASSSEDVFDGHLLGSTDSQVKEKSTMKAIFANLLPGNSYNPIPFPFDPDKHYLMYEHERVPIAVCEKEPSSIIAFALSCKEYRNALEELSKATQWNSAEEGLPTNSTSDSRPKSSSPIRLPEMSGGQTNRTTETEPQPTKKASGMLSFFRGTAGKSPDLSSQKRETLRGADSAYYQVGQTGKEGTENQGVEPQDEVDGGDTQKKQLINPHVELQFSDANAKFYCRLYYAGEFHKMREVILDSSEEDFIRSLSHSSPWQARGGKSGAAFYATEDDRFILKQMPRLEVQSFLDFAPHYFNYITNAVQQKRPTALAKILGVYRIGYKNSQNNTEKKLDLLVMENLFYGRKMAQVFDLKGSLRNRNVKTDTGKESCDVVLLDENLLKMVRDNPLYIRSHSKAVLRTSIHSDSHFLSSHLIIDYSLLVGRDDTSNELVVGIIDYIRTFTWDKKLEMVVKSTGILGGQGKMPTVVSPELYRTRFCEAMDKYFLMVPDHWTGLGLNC

| IC50 (PIKFYVE [1]) [nM] | EC50 (PIKFYVE [2]) [nM] | Compound |
| --- | --- | --- |
| 3 to 10 | > 5000 | Cc1cccc(-c2ccn(-c3cc(N4CCOCC4)nc(OCC(c4ccccc4)N(C)C)n3)n2)c1 (centres unmarked) [Compound 111, N,N-dimethyl-2-((4-morpholino-6-(3-(m-tolyl)-1H-pyrazol-1-yl)pyrimidin-2-yl)oxy)-1-phenylethan-1-amine] |
| 10 to 100 | 500 to 5000 | Cc1cccc(-c2ccn(-c3cc(N4CCOCC4)nc(OCCCc4ccco4)n3)n2)c1 [Compound 112, 4-(2-(3-(furan-2-yl)propoxy)-6-(3-(m-tolyl)-1H-pyrazol-1-yl)pyrimidin-4-yl)morpholine] |
| < 3 | 100 to 500 | Cc1cccc(-c2ccn(-c3cc(N4CCOCC4)nc(OC(CN(C)C)c4ccccc4)n3)n2)c1 (centres unmarked) [Compound 113, N,N-dimethyl-2-((4-morpholino-6-(3-(m-tolyl)-1H-pyrazol-1-yl)pyrimidin-2-yl)oxy)-2-phenylethan-1-amine] |
| 3 to 10 | 100 to 500 | c1ccc(-c2ccn(-c3cc(N4CCOCC4)nc(OCc4cccnn4)n3)n2)cc1 [Compound 114, 4-(6-(3-phenyl-1H-pyrazol-1-yl)-2-(pyridazin-3-ylmethoxy)pyrimidin-4-yl)morpholine] |
| < 3 | 100 to 500 | Cn1ccc(COc2nc(N3CCOCC3)cc(-n3ccc(-c4ccccc4)n3)n2)n1 [Compound 115, 4-(2-((1-methyl-1H-pyrazol-3-yl)methoxy)-6-(3-phenyl-1H-pyrazol-1-yl)pyrimidin-4-yl)morpholine] |
| < 3 | 100 to 500 | Cc1cccc(-c2ccn(-c3cc(N4CCOCC4)nc(OCCn4cnc(CO)c4)n3)n2)c1 [Compound 116, (1-(2-((4-morpholino-6-(3-(m-tolyl)-1H-pyrazol-1-yl)pyrimidin-2-yl)oxy)ethyl)-1H-imidazol-4-yl)methanol] |
| 10 to 100 | 500 to 5000 | Cc1cccc(-c2ccn(-c3cc(N4CCOCC4)nc(OCCn4cnc(CN(C)C)c4)n3)n2)c1 [Compound 117, N,N-dimethyl-1-(1-(2-((4-morpholino-6-(3-(m-tolyl)-1H-pyrazol-1-yl)pyrimidin-2-yl)oxy)ethyl)-1H-imidazol-4-yl)methanamine] |
| < 3 | 20 to 100 | Cc1cccc(-c2ccn(-c3cc(N4CCOCC4)nc(OCCc4cn(C)cn4)n3)n2)c1 [Compound 118, 4-(2-(2-(1-methyl-1H-imidazol-4-yl)ethoxy)-6-(3-(m-tolyl)-1H-pyrazol-1-yl)pyrimidin-4-yl)morpholine] |
| 3 to 10 | 20 to 100 | Cc1cccc(-c2ccn(-c3cc(N4CCOCC4)nc(OCCc4c[nH]cn4)n3)n2)c1 [Compound 119, 4-(2-(2-(1H-imidazol-4-yl)ethoxy)-6-(3-(m-tolyl)-1H-pyrazol-1-yl)pyrimidin-4-yl)morpholine] |
| 10 to 100 | 100 to 500 | Cc1cccc(-c2ccn(-c3cc(N4CCOCC4)nc(OCc4cn[nH]c4)n3)n2)c1 [Compound 120, 4-(2-((1H-pyrazol-4-yl)methoxy)-6-(3-(m-tolyl)-1H-pyrazol-1-yl)pyrimidin-4-yl)morpholine] |
| 3 to 10 | 100 to 500 | Cc1cccc(-c2ccn(-c3cc(N4CCOCC4)nc(OCCO)n3)n2)c1 [Compound 121, 2-((4-morpholino-6-(3-(m-tolyl)-1H-pyrazol-1-yl)pyrimidin-2-yl)oxy)ethan-1-ol] |
| 3 to 10 | 100 to 500 | Cc1cccc(-c2ccn(-c3cc(N4CCOCC4)nc(OCC4COC4)n3)n2)c1 [Compound 122, 4-(2-(oxetan-3-ylmethoxy)-6-(3-(m-tolyl)-1H-pyrazol-1-yl)pyrimidin-4-yl)morpholine] |
| 10 to 100 | 500 to 5000 | Cn1cc(CCOc2nc(N3CCOCC3)cc(-n3ccc(C4CC4)n3)n2)cn1 [Compound 123, 4-(6-(3-cyclopropyl-1H-pyrazol-1-yl)-2-(2-(1-methyl-1H-pyrazol-4-yl)ethoxy)pyrimidin-4-yl)morpholine] |
| > 5000 | > 5000 | CCCc1ccn(-c2cc(N3CCOCC3)nc(OCCc3cnn(C)c3)n2)n1 [Compound 124, 4-(2-(2-(1-methyl-1H-pyrazol-4-yl)ethoxy)-6-(3-propyl-1H-pyrazol-1-yl)pyrimidin-4-yl)morpholine] |
| 10 to 100 | 100 to 500 | Cc1ccccc1-c1ccn(-c2cc(N3CCOCC3)nc(OCCc3cnn(C)c3)n2)n1 [Compound 125, 4-(2-(2-(1-methyl-1H-pyrazol-4-yl)ethoxy)-6-(3-(o-tolyl)-1H-pyrazol-1-yl)pyrimidin-4-yl)morpholine] |
| 10 to 100 | 100 to 500 | Cn1cc(CCOc2nc(N3CCOCC3)cc(-n3ccc(-c4cccc(C#N)c4)n3)n2)cn1 [Compound 126, 3-(1-(2-(2-(1-methyl-1H-pyrazol-4-yl)ethoxy)-6-morpholino-pyrimidin-4-yl)-1H-pyrazol-3-yl)benzonitrile] |
| < 3 | 20 to 100 | Cc1cc(-c2ccccc2)nn1-c1cc(N2CCOCC2)nc(OCCc2cnn(C)c2)n1 [Compound 127, 4-(2-(2-(1-methyl-1H-pyrazol-4-yl)ethoxy)-6-(5-methyl-3-phenyl-1H-pyrazol-1-yl)pyrimidin-4-yl)morpholine] |

| IC50 (PIKFYVE [1]) [nM] | EC50 (PIKFYVE [2]) [nM] | Compound |
| --- | --- | --- |
| 3 to 10 | 500 to 5000 | Cn1cc(CCOc2nc(N3CCOCC3)cc(-n3ccc(COc4ccccc4)n3)n2)cn1 [Compound 128, 4-(2-(2-(1-methyl-1H-pyrazol-4-yl)ethoxy)-6-(3-(phenoxymethyl)-1H-pyrazol-1-yl)pyrimidin-4-yl)morpholine] |
| 3 to 10 | 100 to 500 | Cn1cc(CCOc2nc(N3CCOCC3)cc(-n3ccc(OCc4ccccc4F)n3)n2)cn1 [Compound 129, 4-(6-(3-((2-fluorobenzyl)oxy)-1H-pyrazol-1-yl)-2-(2-(1-methyl-1H-pyrazol-4-yl)ethoxy)pyrimidin-4-yl)morpholine] |
| 3 to 10 | 100 to 500 | COCC(O)c1nc(N2CCOCC2)cc(-n2ccc(-c3cccc(C)c3)n2)n1 (centres unmarked) [Compound 155, 2-methoxy-1-(4-morpholino-6-(3-(m-tolyl)-1H-pyrazol-1-yl)pyrimidin-2-yl)ethan-1-ol] |
| 10 to 100 | 100 to 500 | Cc1cccc(-c2ccn(-c3cc(N4CCOCC4)nc(OCC(=O)c4ccccc4)n3)n2)c1 [Compound 169] |
| 100 to 5000 | > 5000 | Cn1cc(CCOc2nc(N3CCOCC3)cc(-n3ccc(C(=O)N4CCCCC4)n3)n2)cn1 [Compound 172, (1-(2-(2-(1-methyl-1H-pyrazol-4-yl)ethoxy)-6-morpholinopyrimidin-4-yl)-1H-pyrazol-3-yl)(piperidin-1-yl)methanone] |
| > 5000 | > 5000 | Cn1cc(CCOc2nccc(N3CCOCC3)n2)cn1 [Compound 173, 4-(2-(2-(1-methyl-1H-pyrazol-4-yl)ethoxy)pyrimidin-4-yl)morpholine] |
| 3 to 10 | 100 to 500 | Cc1cccc(-c2ccn(-c3cc(N4CCOCC4)nc(OCC#N)n3)n2)c1 [Compound 174, 2-((4-morpholino-6-(3-(m-tolyl)-1H-pyrazol-1-yl)pyrimidin-2-yl)oxy)acetonitrile] |
| < 3 | 20 to 100 | Cc1cccc(-c2ccn(-c3cc(N4CCOCC4)nc(OCCCC#N)n3)n2)c1 [Compound 175, 4-((4-morpholino-6-(3-(m-tolyl)-1H-pyrazol-1-yl)pyrimidin-2-yl)oxy)butanenitrile] |
| < 3 | 100 to 500 | Cc1cccc(-c2ccn(-c3cc(N4CCOCC4)nc(OCC4(C)COC4)n3)n2)c1 [Compound 176, 4-(2-((3-methyloxetan-3-yl)methoxy)-6-(3-(m-tolyl)-1H-pyrazol-1-yl)pyrimidin-4-yl)morpholine] |
| 10 to 100 | 500 to 5000 | COC(Cc1ccccc1)c1nc(N2CCOCC2)cc(-n2ccc(-c3ccccc3)n2)n1 (centres unmarked) [Compound 177, 4-(2-(1-methoxy-2-phenylethyl)-6-(3-phenyl-1H-pyrazol-1-yl)pyrimidin-4-yl)morpholine] |
| 100 to 5000 | > 5000 | Cn1cc(CCOc2nc(N3CCOCC3)cc(-n3ccc(C(=O)O)n3)n2)cn1 [Compound 178, 1-(2-(2-(1-methyl-1H-pyrazol-4-yl)ethoxy)-6-morpholinopyrimidin-4-yl)-1H-pyrazole-3-carboxylic acid] |
| < 3 | < 20 | Cn1cc(CCOc2nc(N3CCOCC3)cc(-n3ccc(-c4cccc(CO)c4)n3)n2)cn1 [Compound 179, (3-(1-(2-(2-(1-methyl-1H-pyrazol-4-yl)ethoxy)-6-morpholinopyrimidin-4-yl)-1H-pyrazol-3-yl)phenyl)methanol] |
| < 3 | 20 to 100 | Cc1cccc(-c2ccn(-c3cc(N4CCOCC4)nc(OCCc4cnn(CCO)c4)n3)n2)c1 [Compound 180, 2-(4-(2-((4-morpholino-6-(3-(m-tolyl)-1H-pyrazol-1-yl)pyrimidin-2-yl)oxy)ethyl)-1H-pyrazol-1-yl)ethan-1-ol] |
| 10 to 100 | 500 to 5000 | N#CCC(O)c1nc(N2CCOCC2)cc(-n2ccc(-c3ccccc3)n2)n1 (centres unmarked) [Compound 181, 3-hydroxy-3-(4-morpholino-6-(3-phenyl-1H-pyrazol-1-yl)pyrimidin-2-yl)propanenitrile] |
| 10 to 100 | 500 to 5000 | COC(CC#N)c1nc(N2CCOCC2)cc(-n2ccc(-c3ccccc3)n2)n1 (centres unmarked) [Compound 182, 3-methoxy-3-(4-morpholino-6-(3-phenyl-1H-pyrazol-1-yl)pyrimidin-2-yl)propanenitrile] |
| 10 to 100 | 100 to 500 | OC(c1ccccc1)c1nc(N2CCOCC2)cc(-n2ccc(-c3ccccc3)n2)n1 (centres unmarked) [Compound 183, (4-morpholino-6-(3-phenyl-1H-pyrazol-1-yl)pyrimidin-2-yl)(phenyl)methanol] |
| 10 to 100 | 100 to 500 | Cn1cc(C(O)c2nc(N3CCOCC3)cc(-n3ccc(-c4ccccc4)n3)n2)cn1 (centres unmarked) [Compound 184, (1-methyl-1H-pyrazol-4-yl)(4-morpholino-6-(3-phenyl-1H-pyrazol-1-yl)pyrimidin-2-yl)methanol] |
